From ChEMBL document CHEMBL4725420, “Selective DYRK1A Inhibitor for the Treatment of Neurodegenerative Diseases: Alzheimer, Parkinson, Huntington, and Down Syndrome” (ACS Med Chem Lett, 2020)

target: Dual specificity tyrosine-phosphorylation-regulated kinase 1A (Homo sapiens, UniProt Q13627); test: Binding affinity to DYRK1A (unknown origin)

`c1cc(-c2ccc3ncn(-c4ccc5c(c4)OCO5)c3n2)ccn1` and `Fc1c(-c2ccncc2)ccc2ncn(-c3ccc4c(c3)OCO4)c12` are the same in Kd: 0.5 nM for the first, 0.5 nM for the second.

`O=C(O)c1ccc(-n2cnc3ccc(-c4ccncc4)nc32)cc1` and `COC(=O)c1ccc(-n2cnc3ccc(-c4ccncc4)c(F)c32)cc1` are the same in Kd: 0.5 nM for the first, 0.5 nM for the second.

Going from `CC(=O)N1C[C@@H]2[C@H](C1)[C@H]2n1c(C)nc2ccc(-c3ccncc3)nc21` to `CC(=O)N1CC[C@H](n2c(C)nc3ccc(-c4ccncc4)nc32)C1`, the Kd rises from 0.5 nM to 101 nM (200-fold). The first binds more tightly here.

`NC(=O)c1ccc(-n2cnc3ccc(-c4ccncc4)c(F)c32)nc1` and `Cc1nc2ccc(-c3ccncc3)nc2n1-c1ccc2c(c1)OCC(=O)N2` are the same in Kd: 0.5 nM for the first, 0.5 nM for the second.

`Cc1nc2ccc(-c3cnn(C4CC4)c3)nc2n1-c1ccc(N2CCOCC2)c(F)c1` and `Cc1nc2ccc(-c3ccncc3)nc2n1-c1ccc(CN2CCOCC2)cc1` are the same in Kd: 0.5 nM for the first, 0.5 nM for the second.
